The text below walks through data of ChEMBL document CHEMBL1146249, “Antiviral 2,5-disubstituted imidazo[4,5-c]pyridines: further optimization of anti-hepatitis C virus activity” (Bioorg Med Chem Lett, 2007).

Bounds are passed on as bounds.

Data set [1] concerns Bovine viral diarrhea virus 1. In words: Antiviral activity against BVDV in MDBK cells. Format: functional, organism-based. The conditions noted are these: Bovine viral diarrhea virus isolates and strains.
In data set [2] the test system is Hepatitis C virus. In words: Antiviral activity against HCV in Huh 5-2 cells. Format: functional, organism-based, Hepacivirus hominis.
Data set [3] can be described thus: Cytotoxicity against MDBK cells. To be noted: cattle. Format: cell-based, Bos taurus.
A short description of data set [4]: Selectivity index, ratio of CC50 for MDBK cells to EC50 for BVDV. Format: functional.
Data set [5] is described as follows: Selectivity index, ratio of CC50 for Huh 5-2 cells to EC50 for HCV. The class given is functional.
A short description of data set [6]: Cytotoxicity against Huh 5-2 cells. Format: cell-based. To be noted: human.

For the compound `Fc1cccc(-c2nc3ccn(Cc4ccc(OC(F)(F)F)cc4)cc-3n2)c1F`, the EC50 in data set [1] and in data set [2] was 0.2 µM each time. For the same compound, the CC50 in data set [3] is greater than 100 µM; in data set [6], 81 µM. Further, the results for the “Ratio CC50/EC50” value in data set [4] and in data set [5] were greater than 500 and 405, respectively.
Consider `Fc1ccccc1-c1nc2ccn(CCOc3ccccc3)cc-2n1`, for which the EC50 came out at 0.28 µM in data set [1] and 48 µM in data set [2]. In addition, the CC50 in data set [3] was greater than 104 µM; in data set [6] it was 96 µM. Further, the “Ratio CC50/EC50” value in data set [4] is recorded as greater than 371; in data set [5], 2.
